Source: ChEMBL document CHEMBL1148168, “The structures of aplysinamisines I, II, and III; new bromotyrosine-derived alkaloids from the Caribbean sponge Aplysina cauliformis” (J Nat Prod, 1993)
≈ marks a conversion by molar mass, not a printed value. Calls of active or inactive are those of the source. The calls are words filed in the database; no cut-off is given here.

Key:
HCT-116 = test: Cytotoxicity against human HCT116 cells; format: functional, cell-based
CCRF-CEM = test: Cytotoxicity against human CCRF-CEM cells; format: functional, cell-based
MCF7 = test: Cytotoxicity against human MCF7 cells; format: functional, cell-based
Escherichia coli = test: Antimicrobial activity against Escherichia coli at 50 to 100 ug/disk; format: functional, organism-based
Pseudomonas aeruginosa = test: Antimicrobial activity against Pseudomonas aeruginosa at 50 to 100 ug/disk; format: functional, organism-based
Staphylococcus aureus = test: Antimicrobial activity against Staphylococcus aureus at 50 to 100 ug/disk; format: functional, organism-based

Row | SMILES | IC50 (HCT-116) | IC50 (CCRF-CEM) | IC50 (MCF7) | Activity (Escherichia coli) | Activity (Pseudomonas aeruginosa) | Activity (Staphylococcus aureus)
1 | COC1=C(Br)[C@H](O)[C@@]2(C=C1Br)CC(C(=O)NCCCOc1c(Br)cc(C(O)CNC(C)=O)cc1Br)=NO2 (some centres not stated) [APLYSINAMISINE III] | 10 µg/mL (≈ 12.9 µM) | 6 µg/mL (≈ 7.74 µM) | 30 µg/mL (≈ 38.7 µM) | Active | Active | Active
2 | COC1=C(Br)[C@H](O)[C@@]2(C=C1Br)CC(C(=O)NCCCCCNC(=N)N)=NO2 [APLYSINAMISINE II] | 10 µg/mL (≈ 19.6 µM) | > 50 µg/mL | > 50 µg/mL | Active | Active | Active
3 | COC1=C(Br)[C@H](O)[C@@]2(C=C1Br)CC(C(=O)NC/C=C\c1c[nH]c(N)n1)=NO2 [APLYSINAMISINE I] |  | > 50 µg/mL | > 50 µg/mL | Active | Active | Active
